Source: the NIST ThermoML archive (doi:10.1021/je800848u)
± gives the expanded uncertainty stated by the source.

Key:
[1] = Molar enthalpy of transition or fusion; settings: Crystal; DSC
[2] = Crystal; visual observation

| Compound | Molar enthalpy of transition or fusion [1] [kcal/mol] | Normal melting temperature [2] [°C] |
| --- | --- | --- |
| O=C(O)c1ccccc1Cl [2-chlorobenzoic acid] | 6.58 ± 0.189 | 141.00 ± 0.4 |
| NC(=O)c1ccccc1 [benzamide] | 5.53 ± 0.163 | 127.00 ± 0.4 |
